# Literature values in patent US20130129668A1, “Diagnosis and treatment of arthritis using epigenetics” (The Regents of the University of California, priority 2011, published 2013).
# Legend:
# FLS = FLS cultured in the presence of 5-azaC for 3 months
smiles,measurement,setting,value
"Nc1ncn([C@H]2C[C@H](O)[C@@H](CO)O2)c(=O)n1 [5-azaC, 5-aza-2′-deoxycytidine]",expression of genes implicated in RA,FLS,increased expression of several genes
same,autoreactivity,T cells,enhances autoreactivity
same,"expression of T cell genes (IFNα, IL-4, CD70, LFA-1)",T cells,affects expression of many T cell genes
